Reference: patent US4963553A, “4-[(substituted) alkylcarbonyl]-4,5-dihydro- and -4,5,6,7-tetrahydro-7-[(substituted)phenyl]pyrazolo[1,5-a]pyrimidines” (American Cyanamid Co., priority 1988, dated 1990)
Counter-ions that a name gives are not always drawn.

How the values were obtained:
[1] = test system: Brain-Specific Receptors of Rats (3H-benzodiazepine binding); assay: Inhibition of the binding of 3H-benzodiazepine to brain-specific receptors of rats; design: species or system rat (Wistar strain, whole cortex); details: rat cortex P2 fraction, 3H-diazepam 1.5 nM or 3H-flunitrazepam 1.0 nM
Excerpt: Another test utilized for the determination of anxiolytic activity is the measurement of the ability of a test compound to inhibit the binding of tritiated benzodiazepines to brain-specific receptors of mammals. A modification of the method described by R. F. Squires, et al., Nature, 266 (21), 732 (Apr., 1977) and H. Mohler, et al., Science, 198, 849 (1977) was employed. […] The test compounds were solubilized in dimethylformamide, acetic acid, ethanol or hydrochloric acid. […] (1) resuspended in twice the original volume in hypotonic 50 mM Tris.HCl (pH 7.4), or (2) resuspended in one-half the original volume in hypotonic 10 mM Tris.HCl (pH 7.4) and frozen (-20° C.) until time. of use. Frozen P2 preparations were thawed and resuspended in four times the original homogenizing volume at time of assay. […] Incubation for 30 minutes proceeded in ice and was terminated by filtration, under vacuum, through glass fiber filters. The filters were washed twice with 5 ml of ice-cold 50 mM Tris.HCl (pH 7.4) and placed in scintillation vials. After drying at 50°-60° C. for 30 minutes, 10 ml of diluent was added and the radioactivity determined in a scintillation counter. Inhibition of binding was calculated by the difference between total binding and binding in the presence of test compound, divided by the total binding, X 100.

[2] = test system: Spontaneously Hypertensive Rats; assay: Hypotensive activity: mean arterial blood pressure in spontaneously hypertensive rats; type: in vivo, rat (Okamoto strain, male); details: SHR, gavage, 100 mg/kg or less, two doses 24 h apart, measured at 28 hours; average MABP of rats used 160±1.5 mm
Procedure: The novel compounds of the invention are active hypotensive agents at nontoxic doses when administered to mammals. These compounds were tested for hypotensive activity by the method of P. S. Chan and D. W. Poorvin, Clinical and Experimental Hypertension, (6), 817-830 (1979). Male, 16 week old, spontaneously hypertensive rats of the Okamoto strain (Taconic Farms, Germantown, N.Y.) having an average means arterial blood pressure of 160±1.5 mm of mercury are used in the test. A rat is dosed by gavage with a test compound, suspended in 2% pre-boiled starch at a concentration of 50 mg/ml, at a dose of 100 mg/kg of body weight or less, with 0.9% sodium chloride loading at a dose of 25 ml/kg of body weight. A second identical dose of the test compound, without sodium chloride loading is given 24 hours later. At 28 hours after the initial dose the mean arterial blood pressure is measured by the method of Chan and Poorvin vide supra.

[3] = molecular target: T1, human platelet membranes (3H-imipramine receptor) (Homo sapiens, UniProt P31645); assay: 3H-imipramine binding to human platelet membranes
T1 construct: Fresh human platelet concentrates (less than 48 hours old) were obtained from the New York Blood Center; tissue New York Blood Center; host or cells: human blood platelets, membranes
Procedure: The activity of the compounds of the invention as antidepressant agents was further verified# in the following test which measures the ability of a test compound to inhibit 3H-imipramine binding to human platelet membranes.
Platelet membranes were obtained using the procedure described by Wennogle, L. et al., Pharmac. Biochem. Behav., 15. 975 (1981). Fresh human platelet concentrates (less than 48 hours old) were obtained from the New York Blood Center. These concentrates were prepared in a citrate-dextrose anticoagulant using standard techniques. Platelets were washed twice by centrifugation (2500×G, 10 minutes) in 50 volumes of an antiprotease buffer containing 0.005M Tris potassium chloride, 0.12M sodium chloride, 0.05M Tris pH 7.5, 0.025 Units/ml aprotinin, 0.05 μg/m pepstatin, 2×10^-5 bacitracin, 3 mM ethylenediaminetetraacetic acid and 1.0 mM ethyleneglycol-bis (β-aminoethylether)N,N'-tetra-acetic acid. […] All procedures were conducted at 0° C. using plastic laboratory-ware throughout the platelet membrane preparation. Platelets were resuspended in 20 volumes of buffer and sonicated 3 times using 10 second bursts of a Branson sonifier (cell disrupter 350) at setting 6 (standard 3/4 inch horn), keeping the sample on ice throughout the procedure. Platelet membranes were then washed twice at 18,000×G for 20 minutes with 50 volumes of the antiprotease buffer and resuspended to 3.0 mg. protein/ml using the Bradford protein analysis with bovine gamma globulin as standard. Membranes were used immediately or stored frozen in liquid nitrogen.
The displacement of 3H-imipramine binding to human platelet membranes was performed essentially as described by Paul, S. M., et al., Life Sci., 953 (1980) with the following modifications. Membranes (0.3 mg protein) were suspended in antiprotease buffer with both […] 3H-imipramine (New England Nuclear) and displacing drug or buffer in a total volume of 250 #1 in glass test tubes. Samples were incubated for 90 minutes at 0° C., then diluted to 5 ml in 0.12M sodium chloride, 0.005M potassium chloride, 0.05M Tris pH 7.5 (wash buffer) and immediately filtered through GF/B Whatman Filters and washed twice with 5 ml of wash buffer. Filters were counted in a liquid scintillation counter after addition of Beckman HP Scintillant.
Non-specific binding of 3H-imipramine was defined as that fraction (generally 35%) of radioactivity that was not displaced by 10 μM desmethylimipramine. Specific binding was determined by subtraction of this non-specific level from values for total 3H-imipramine binding which were measured by incubating 3H-imipramine in the absence of displacing drug. Compounds were tested in duplicate test tubes at a concentration of 10 μM. Compounds which inhibited binding by more than 50% were considered to be active.

[4] = test system: mice (hypoxic environment); assay: Hypoxic survival test; type: in vivo, mouse (Royal Hart); details: Mus musculus, ip, 5 min, 100 mg/kg, intraperitoneal, 10% oxygen, 5 minutes; read-out: % Survivors
In short: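 Groups of 20 Royal Hart mice (6 weeks old) dosed i.p. with compound in saline at 1–200 mg/kg, 30 minutes before exposure to 10% oxygen/90% carbon dioxide; survival scored after 5 minutes. Saline and physostigmine (0.125 mg/kg i.p.) groups run in parallel.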

T1 sequence (P31645 whole entry): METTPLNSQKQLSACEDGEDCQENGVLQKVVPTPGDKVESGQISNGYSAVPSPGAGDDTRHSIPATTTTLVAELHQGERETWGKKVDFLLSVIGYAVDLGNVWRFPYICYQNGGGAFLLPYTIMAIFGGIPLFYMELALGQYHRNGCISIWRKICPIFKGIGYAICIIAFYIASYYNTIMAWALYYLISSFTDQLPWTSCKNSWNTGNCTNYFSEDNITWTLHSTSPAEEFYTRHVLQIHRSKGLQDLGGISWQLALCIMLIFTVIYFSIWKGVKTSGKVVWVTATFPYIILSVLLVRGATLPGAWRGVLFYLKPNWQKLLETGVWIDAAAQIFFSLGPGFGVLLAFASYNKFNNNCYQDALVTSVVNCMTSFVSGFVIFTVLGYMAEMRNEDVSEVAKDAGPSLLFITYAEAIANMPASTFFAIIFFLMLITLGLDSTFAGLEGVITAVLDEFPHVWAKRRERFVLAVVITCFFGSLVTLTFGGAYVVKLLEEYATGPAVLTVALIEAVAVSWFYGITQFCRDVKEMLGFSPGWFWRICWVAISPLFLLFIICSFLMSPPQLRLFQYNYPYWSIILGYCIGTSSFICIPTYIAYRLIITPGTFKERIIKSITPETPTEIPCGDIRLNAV

Compound	% Inhibition (3H-benzodiazepine binding) [1]	also measured
N#Cc1cnn2c1N(C(=O)CN1CCN(CC(=O)N3CCOCC3)CC1)CC=C2c1cccc(C(F)(F)F)c1 [Example 36, 4,5-Dihydro-4-[[4-[2-(4-morpholinyl)-2-oxoethyl]-1-piperazinyl]acetyl]-7-[3-(trifluoromethyl)phenyl]pyrazolo[1,5-a]pyrimidine-3-carbonitrile]	41%	MABP/mmHg (mean arterial blood pressure) [2]: 129 mmHg
CCOC(=O)N1CCN(CC(=O)N2CC=C(c3cccc(C(F)(F)F)c3)n3ncc(C#N)c32)CC1 [Example 42]	45%	–
N#Cc1cnn2c1N(C(=O)CN1CCN(C(=O)Nc3ccccc3)CC1)CC=C2c1cccc(C(F)(F)F)c1 [Example 99, 4-[2-[3-Cyano-7-[3-(trifluoromethyl)phenyl]pyrazolo-[1,5-a]pyrimidin-4(5H)-yl]-2-oxoethyl]-N-phenyl-1-piperazinecarboxamide]	24%	MABP/mmHg (mean arterial blood pressure) [2]: 125 mmHg
CN(C)CCCN1CCN(CC(=O)N2CC=C(c3cccc(C(F)(F)F)c3)n3ncc(C#N)c32)CC1 [Example 33, 4-[[4-[3-(Dimethylamino)propyl]-1-piperazinyl]acetyl]-4,5-dihydro-7-[3-(trifluoromethyl)phenyl]pyrazolo[1,5-a]pyrimidine-3-carbonitrile]	–	inhibition at 10 µM [3]: 89%
N#Cc1cnn2c1N(C(=O)CCN1CCN(Cc3ccccc3)CC1)CC=C2c1cccc(C(F)(F)F)c1 [Example 27, 4,5-Dihydro-4-[1-oxo-3-[4-(phenylmethyl)-1-piperazinyl]propyl]-7-[3-(trifluoromethyl)phenyl]pyrazolo[1,5-a]pyrimidine-3-carbonitrile]	–	inhibition at 10 µM [3]: 80%
CC(C)NC(=O)CN1CCN(CC(=O)N2CC=C(c3cccc(C(F)(F)F)c3)n3ncc(C#N)c32)CC1 [Example 37]	41%	MABP/mmHg (mean arterial blood pressure) [2]: 129 mmHg
N#Cc1cnn2c1N(C(=O)CN1CCNCC1)CC=C2c1cccc(C(F)(F)F)c1 [Example 98, 4.5-Dihydro-4-(1-piperazinylacetyl)-7-[3-(trifluoromethyl)phenyl]pyrazolo[1,5-a]pyrimidine-3-carbonitrile]	25%	–
CCCCCCN(CCCCCC)CC(=O)N1CC=C(c2cccc(C(F)(F)F)c2)n2ncc(C#N)c21 [4-[(Dihexylamino)acetyl]-4,5-dihydro-7-[3-(trifluoromethyl)phenyl]pyrazolo[1,5-a]pyrimidine-3-carbonitrile]	24%	–
COc1ccc(Cl)cc1NC(=O)CN1CCN(CC(=O)N2CC=C(c3cccc(C(F)(F)F)c3)n3ncc(C#N)c32)CC1 [Example 100, N-(5-Chloro-2-methoxyphenyl)-4-[2-[3-cyano-7-[3-(trifluoromethyl)phenyl]pyrazolo[1.5-a]pyrimidin-4(5H)-yl]-2-oxoethyl]-1-piperazineacetamide]	15%	MABP/mmHg (mean arterial blood pressure) [2]: 139 mmHg
Cl.Cl.N#Cc1cnn2c1N(C(=O)CN1CCN(Cc3ccccc3)CC1)CCC2c1cccc(C(F)(F)F)c1 (centres unmarked) [Example 89, 4,5,6,7-Tetrahydro-4-[[4-(phenylmethyl)-1-piperazinyl]acetyl]-7-[3-(trifluoromethyl)phenyl]pyrazolo[1,5-a]pyrimidine-3-carbonitrile, dihydrochloride]	12%	–
CN1CCN(CC(=O)N2CC=C(c3cccc(C(F)(F)F)c3)n3ncc(C#N)c32)CC1 [Example 16, 4,5-Dihydro-4-[(4-methyl-1-piperazinyl)acetyl]-7-[3-(trifluoromethyl)phenyl]pyrazolo[1,5-a]pyrimidine-3-carbonitrile]	41%	–
N#Cc1cnn2c1N(C(=O)CN1CCN(CC(=O)N3CCCC3)CC1)CC=C2c1cccc(C(F)(F)F)c1 [Example 38, 4,5-Dihydro-4-[[4-[2-oxo-2-(1-pyrrolidinyl)ethyl]-1-piperazinyl]acetyl]-7-[3-(trifluoromethyl)phenyl]pyrazolo[1,5-a]pyrimidine-3-carbonitrile]	33%	–
N#Cc1cnn2c1N(C(=O)CN1CCN(C(=O)c3ccco3)CC1)CC=C2c1cccc(C(F)(F)F)c1 [Example 96, 4-[[4-(2-Furanylcarbonyl)-1-piperazinyl]acetyl]-4.5-dihydro-7-[(3-trifluoromethyl)phenyl]pyrazolo[1,5-a]pyrimidine-3-carbonitrile, hydrochloride]	12%	–
N#Cc1cnn2c1N(C(=O)CN1CCN(Cc3ccccc3)CC1)CCC2c1cccc(C(F)(F)F)c1 (centres unmarked) [Example 46, 4,5,6,7-Tetrahydro-4-[[4-(phenylmethyl)-1-piperazinyl]acetyl]-7-[3-(trifluoromethyl)phenyl]pyrazolo[1,5-a]pyrimidine-3-carbonitrile]	14%	responders at 100 mg/kg [4]: 80%
N#Cc1cnn2c1N(C(=O)CCN1CCN(Cc3ccc(Cl)cc3)CC1)CC=C2c1cccc(C(F)(F)F)c1 [Example 85, 4-[3-[(4-Chlorophenyl)methyl]-1-piperazinyl]-1-oxopropyl]dihydro-7-[3-(trifluoromethyl)phenyl]pyrazolo[1,5-a]pyrimidine-3-carbonitrile, dihydrochloride]	–	inhibition at 10 µM [3]: 85%
N#Cc1cnn2c1N(C(=O)CCN1CCN(Cc3ccccc3)CC1)CC=C2c1cc(Cl)ccc1Cl [Example 71, 7-(2,5-Dichlorophenyl)-4,5-dihydro-4-[1-oxo-3-[4-(phenylmethyl)-1-piperazinyl]propyl]pyrazolo[1,5-a]pyrimidine-3-carbonitrile]	–	inhibition at 10 µM [3]: 79%
Cl.N#Cc1cnn2c1N(C(=O)CN1CCN(c3ccc(Cl)c(Cl)c3)CC1)CC=C2c1cccc(C(F)(F)F)c1 [Example 82, 4-[[4-(3,4-Dichlorophenyl)-1-piperazinyl]acetyl]-4,5-dihydro-7-[3-(trifluoromethyl)phenyl]pyrazolo[1,5-a]pyrimidine-3-carbonitrile, hydrochloride]	12%	–
N#Cc1cnn2c1N(C(=O)CN1CCN(CCC3CCCCC3)CC1)CC=C2c1cccc(C(F)(F)F)c1 [Example 86, 4-[[4-(2-(Cyclohexylethyl)-1-piperazinyl]acetyl]-4,5-dihydro-7-[3-(trifluoromethyl)phenyl]pyrazolo[1,5-a]pyrimidine-3-carbonitrile, dihydrochloride]	14%	–
